According to the supplement of paper PMC10307832:

Experiments:
Assay in all cases: relative viability (nuclei count vs DMSO), 5 days (fraction); higher = more cells survive
[1] = compound: COC1=CC=C(C=C1)CN2C=CC3=C2C=C(C=C3)C(=O)NO + Cc1cc(Nc2cc(N3CCN(C)CC3)nc(Sc3ccc(NC(=O)C4CC4)cc3)n2)n[nH]1 [Tozasertib] (partner 0.1 µM)
Summary of the method: (§1)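 Nuclei were stained with Hoechst during a one-step fixation (final 0.05% Triton X-100, 1% formaldehyde, 1 ug/ml Hoechst) carried out 5 days after dosing, then counted on 4× images. The cells, lung cancer lines in 1536-well plates, had been dosed by pin tool the day after seeding with one drug alone or a fixed anchor-drug dose plus five library-drug doses (not always all listed) in √10 steps. Relative viability is the nuclei count in treated wells divided by that in vehicle wells, and each value is the median of duplicate plates.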

Veliparib + Navitoclax = compound: C[C@]1(c2nc3c(C(N)=O)cccc3[nH]2)CCCN1 [Veliparib] + CC1(C)CCC(c2ccc(Cl)cc2)=C(CN2CCN(c3ccc(C(=O)NS(=O)(=O)c4ccc(N[C@H](CCN5CCOCC5)CSc5ccccc5)c(S(=O)(=O)C(F)(F)F)c4)cc3)CC2)C1 [Navitoclax] (partner 0.5 µM)
Summary of the method: as §1

Veliparib + Crizotinib = compound: C[C@]1(c2nc3c(C(N)=O)cccc3[nH]2)CCCN1 [Veliparib] + C[C@@H](Oc1cc(-c2cnn(C3CCNCC3)c2)cnc1N)c1c(Cl)ccc(F)c1Cl [Crizotinib] (partner 1 µM)
Summary of the method: as §1

Veliparib + Pemetrexed = compound: C[C@]1(c2nc3c(C(N)=O)cccc3[nH]2)CCCN1 [Veliparib] + Nc1nc2[nH]cc(CCc3ccc(C(=O)N[C@@H](CCC(=O)O)C(=O)O)cc3)c2c(=O)[nH]1 [Pemetrexed] (partner 0.2 µM)
Summary of the method: as §1

Cell Line | relative viability ([1]; first compound 0.08 µM) | relative viability ([1]; first compound 0.253 µM) | relative viability ([1]; first compound 0.8 µM) | relative viability ([1]; first compound 2.53 µM) | relative viability ([1]; first compound 8 µM) | relative viability (Veliparib + Navitoclax; first compound 0.02 µM) | relative viability (Veliparib + Navitoclax; first compound 0.06325 µM) | relative viability (Veliparib + Navitoclax; first compound 0.2 µM) | relative viability (Veliparib + Navitoclax; first compound 0.6325 µM) | relative viability (Veliparib + Navitoclax; first compound 2 µM) | relative viability (Veliparib + Crizotinib; first compound 0.02 µM) | relative viability (Veliparib + Crizotinib; first compound 0.06325 µM) | relative viability (Veliparib + Crizotinib; first compound 0.2 µM) | relative viability (Veliparib + Crizotinib; first compound 0.6325 µM) | relative viability (Veliparib + Crizotinib; first compound 2 µM) | relative viability (Veliparib + Pemetrexed; first compound 0.02 µM) | relative viability (Veliparib + Pemetrexed; first compound 0.06325 µM) | relative viability (Veliparib + Pemetrexed; first compound 0.2 µM) | relative viability (Veliparib + Pemetrexed; first compound 0.6325 µM) | relative viability (Veliparib + Pemetrexed; first compound 2 µM)
SK-MES-1 | 0.816 | 0.895 | 0.868 | 0.874 | 0.81 | 1.27 | 1.16 | 1.3 | 1.06 | 1.26 | 0.973 | 0.901 | 0.951 | 0.854 | 0.956 | 1 | 0.901 | 0.946 | 0.901 | 0.995
HCC-44 | 0.803 | 0.909 | 0.946 | 0.863 | 0.792 | 1.05 | 0.846 | 1.02 | 0.798 | 0.967 | 0.834 | 0.708 | 0.85 | 0.74 | 0.835 | 0.606 | 0.656 | 0.655 | 0.59 | 0.63
H3255 | 0.457 | 0.393 | 0.639 | 0.497 | 0.604 | 0.479 | 0.445 | 0.537 | 0.477 | 0.518 | 0.898 | 0.904 | 0.814 | 0.829 | 0.969 | 0.541 | 0.561 | 0.548 | 0.53 | 0.629
NCI-H2228 | – | 0.229 | 0.291 | 0.228 | 0.185 | 1.13 | 0.953 | 1.01 | 0.688 | 1.05 | 0.436 | 0.405 | 0.457 | 0.447 | 0.475 | 0.336 | 0.375 | 0.398 | 0.331 | 0.313
COR-L 105 | 0.351 | 0.355 | 0.328 | 0.416 | 0.319 | 0.688 | 0.817 | 0.712 | 0.615 | 0.928 | 0.881 | 0.583 | 0.921 | 0.786 | 0.696 | 1.27 | 1.09 | 1.27 | 1.19 | 1.01
RERF-LC-KJ | 0.427 | 0.494 | 0.499 | 0.49 | 0.388 | 1.05 | – | 1 | 0.852 | 0.754 | 0.893 | 0.751 | 0.847 | 0.784 | 0.783 | 0.43 | 0.454 | 0.505 | 0.462 | 0.464
NCI-H647 | 0.224 | 0.237 | 0.314 | 0.262 | 0.267 | 1.13 | 1.14 | 1.14 | 1.03 | 1.1 | 1.07 | 1.01 | 1.23 | 1.03 | 0.907 | 0.167 | 0.188 | 0.192 | 0.175 | 0.216
ChaGo-K-1 | – | 0.249 | 0.211 | 0.214 | 0.234 | – | 0.833 | 1.08 | 1.06 | 0.85 | – | 1.05 | 1.08 | 1.06 | 1.09 | 0.227 | 0.266 | 0.245 | 0.246 | 0.257
LK-2 | – | 0.196 | 0.197 | 0.157 | 0.174 | 0.713 | 0.876 | 1.24 | 0.831 | 0.823 | – | 0.179 | 0.149 | 0.232 | 0.183 | 0.324 | 0.307 | 0.311 | 0.203 | 0.299
NCI-H460 | 0.309 | 0.381 | 0.422 | 0.411 | 0.195 | – | 1.02 | 1.06 | 1.03 | 1.12 | – | 0.869 | 0.934 | 0.734 | 1.02 | 0.0617 | 0.0618 | 0.0599 | 0.0593 | 0.0663
SK-LU-1 | 0.279 | 0.339 | 0.325 | 0.337 | 0.3 | 0.985 | 1.05 | 0.959 | 0.804 | 0.793 | 1.15 | 0.924 | 1.07 | 0.848 | 0.803 | 0.963 | 1.03 | 1.15 | 0.92 | 0.981
LU99A | – | 0.254 | 0.298 | 0.277 | 0.298 | 0.761 | 0.779 | 0.832 | 0.657 | 0.863 | 0.604 | 0.527 | 0.46 | 0.44 | 0.625 | 0.207 | 0.184 | 0.205 | 0.196 | 0.181
UMC-11 | – | 0.204 | 0.215 | 0.215 | 0.223 | 0.345 | 0.312 | 0.369 | 0.324 | 0.331 | 0.549 | 0.654 | 0.595 | 0.547 | 0.577 | 0.931 | 0.749 | 0.878 | 0.804 | 0.759
NCI-H1650 | 0.391 | 0.379 | 0.447 | 0.416 | 0.326 | – | 0.93 | 1.19 | 1.08 | 1.32 | – | 0.899 | 1.11 | 0.81 | 0.919 | 0.388 | 0.332 | 0.373 | 0.331 | 0.362
PC-3 [JPC-3] | 0.861 | 0.912 | 0.921 | 0.88 | 0.908 | 0.742 | 0.77 | 0.801 | 0.749 | 0.734 | 0.996 | 0.961 | 0.914 | 0.96 | 0.985 | 1.01 | – | 1.33 | 1.28 | 1.08
A-427 | – | 0.234 | 0.212 | 0.202 | 0.185 | 1.05 | 0.795 | 0.93 | 0.938 | 0.893 | 0.884 | 0.837 | 0.864 | 0.83 | 0.836 | 1 | 0.966 | 0.946 | 1.03 | 1.04
HCC-366 | 0.0975 | 0.116 | 0.124 | 0.354 | 0.0739 | 1.09 | 1.01 | 0.968 | 0.942 | 1.1 | 0.592 | 0.38 | 0.543 | 0.401 | 0.419 | 0.178 | 0.204 | 0.227 | 0.185 | 0.207
